Results as given in paper PMC9182007, “Statistical Methods in the Study of Protein Binding and Its Relationship to Drug Bioavailability in Breast Milk” (Molecules, 2022).
Read-outs that look alike come from different tables or passages of the source.

Assays:
[1] = Table S1, coded 1/0; ref DrugBank [7]; cited from earlier work
[2] = RP TLC on non-impregnated control plates; format: physicochemical; settings: Table S4, non-impregnated RP plate; acetonitrile/acetate buffer pH 7.4/methanol 60:20:20
[3] = target: T1, human serum albumin (HSA) (Homo sapiens, UniProt P02768)
[4] = HPLC on immobilized artificial membrane column (HPLCIAM); format: physicochemical; settings: for log k IAM: Table S5, IAM column, pH 7.4; for k IAM: Table S5, retention factor, IAM column, phosphate buffer pH 7.4/acetonitrile 80:20
[5] = NP TLC on non-impregnated control plates; format: physicochemical; settings: Table S3, non-impregnated NP plate; acetonitrile/acetate buffer pH 7.4/methanol 60:20:20
[6] = target: T2, bovine serum albumin (BSA) (Bos taurus, UniProt P02769); test: NP TLC on plates impregnated with bovine serum albumin; format: binding; settings: Table S3, NP plate impregnated with 2 mg/mL BSA; pH 7.4 mobile phase
T2 construct: purchased Sigma Aldrich

[7] = target: T2, bovine serum albumin (BSA); test: RP TLC on plates impregnated with bovine serum albumin; format: binding; settings: Table S4, RP plate impregnated with 2 mg/mL BSA; pH 7.4 mobile phase
[8] = tested on: plasma protein; settings: Table S1, plasma protein binding given as fraction; ref DrugBank [7]; cited from earlier work
[9] = target: T1, human serum albumin (HSA); test: in vitro; settings: immobilized hsa column, pH 7.4
[10] = Table S5, retention factor, HSA column, pH 7.4, 25 degrees Celsius

T1 sequence (P02768 25-609): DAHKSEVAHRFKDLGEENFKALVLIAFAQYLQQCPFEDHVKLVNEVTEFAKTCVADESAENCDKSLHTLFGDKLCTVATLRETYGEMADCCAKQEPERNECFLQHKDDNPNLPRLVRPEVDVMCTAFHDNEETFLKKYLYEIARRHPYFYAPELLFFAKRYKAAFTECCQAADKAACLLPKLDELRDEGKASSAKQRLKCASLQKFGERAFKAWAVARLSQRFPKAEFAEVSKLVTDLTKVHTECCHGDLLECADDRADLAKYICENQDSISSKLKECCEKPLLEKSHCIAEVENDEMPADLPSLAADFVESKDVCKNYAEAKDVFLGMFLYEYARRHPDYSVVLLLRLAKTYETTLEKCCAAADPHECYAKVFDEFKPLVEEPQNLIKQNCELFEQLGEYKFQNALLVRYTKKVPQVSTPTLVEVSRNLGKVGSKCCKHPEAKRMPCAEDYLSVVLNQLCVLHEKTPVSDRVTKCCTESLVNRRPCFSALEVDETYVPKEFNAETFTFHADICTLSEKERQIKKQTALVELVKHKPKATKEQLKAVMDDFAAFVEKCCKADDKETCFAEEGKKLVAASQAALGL
T2 sequence (P02769 25-607): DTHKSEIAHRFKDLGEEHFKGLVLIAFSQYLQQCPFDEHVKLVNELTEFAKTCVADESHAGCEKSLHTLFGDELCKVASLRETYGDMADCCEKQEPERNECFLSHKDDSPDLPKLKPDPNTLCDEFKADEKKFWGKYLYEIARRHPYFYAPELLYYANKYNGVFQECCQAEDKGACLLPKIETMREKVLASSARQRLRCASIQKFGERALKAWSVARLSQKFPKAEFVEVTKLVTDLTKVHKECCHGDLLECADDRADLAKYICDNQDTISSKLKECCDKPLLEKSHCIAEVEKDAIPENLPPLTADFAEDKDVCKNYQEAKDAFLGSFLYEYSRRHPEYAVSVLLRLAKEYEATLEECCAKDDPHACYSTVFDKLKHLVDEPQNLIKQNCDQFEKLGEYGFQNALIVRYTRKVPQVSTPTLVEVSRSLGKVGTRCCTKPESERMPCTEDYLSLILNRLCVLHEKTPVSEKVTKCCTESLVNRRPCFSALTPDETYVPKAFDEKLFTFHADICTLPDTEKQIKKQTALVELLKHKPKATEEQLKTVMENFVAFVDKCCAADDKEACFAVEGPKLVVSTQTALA

CC[C@H]1OC(=O)[C@H](C)[C@@H](O[C@H]2C[C@@](C)(OC)[C@@H](O)[C@H](C)O2)[C@H](C)[C@@H](O[C@@H]2O[C@H](C)C[C@H](N(C)C)[C@H]2O)[C@](C)(O)C[C@@H](C)CN(C)[C@H](C)[C@@H](O)[C@]1(C)O [azithromycin]
CNS+/- [1]: 0 | CRP (Rf, control RP plate) [2]: 0.24 | k HSA [3, 10]: 0.23 | log k IAM [4]: -1.20 | k IAM [4]: 0.06 | CNP (Rf, control NP plate) [5]: 0.63 | NP (Rf, BSA-impregnated NP plate) [6]: 0.63 | RP (Rf, BSA-impregnated RP plate) [7]: 0.24 | PB [8]: 0.29 | chromatographic logD [9]: -0.64

CCOCCn1c(C2CCN(CCc3ccc(C(C)(C)C(=O)O)cc3)CC2)nc2ccccc21 [bilastine]
CRP (Rf, control RP plate) [2]: 0.76 | k HSA [3, 10]: 0.67 | log k IAM [4]: -0.26 | k IAM [4]: 0.55 | CNP (Rf, control NP plate) [5]: 0.46 | NP (Rf, BSA-impregnated NP plate) [6]: 0.44 | RP (Rf, BSA-impregnated RP plate) [7]: 0.72 | PB [8]: 0.87 | chromatographic logD [9]: -0.17

O=C1CN=C(c2ccccn2)c2cc(Br)ccc2N1 [bromazepam]
CNS+/- [1]: 1 | CRP (Rf, control RP plate) [2]: 0.83 | k HSA ([3]; pH 7.4): 0.63 | log k IAM [4]: 0.34 | k IAM [4]: 2.21 | CNP (Rf, control NP plate) [5]: 0.87 | NP (Rf, BSA-impregnated NP plate) [6]: 0.90 | RP (Rf, BSA-impregnated RP plate) [7]: 0.81 | PB [8]: 0.7 | chromatographic logD [9]: -0.2

COc1ccccc1OCCNCC(O)COc1cccc2[nH]c3ccccc3c12 (stereo not drawn) [carvedilol]
CNS+/- [1]: 0 | k HSA [3, 10]: 14.5 | CNP (Rf, control NP plate) [5]: 0.73 | NP (Rf, BSA-impregnated NP plate) [6]: 0.9 | PB [8]: 0.98 | chromatographic logD [9]: 1.16

CO/N=C(\C(=O)N[C@@H]1C(=O)N2C(C(=O)O)=C(COC(N)=O)CS[C@H]12)c1ccco1 [cefuroxime]
CNS+/- [1]: 0 | CRP (Rf, control RP plate) [2]: 0.88 | k HSA [3, 10]: 0.23 | log k IAM [4]: 0.23 | k IAM [4]: 1.69 | CNP (Rf, control NP plate) [5]: 0.97 | NP (Rf, BSA-impregnated NP plate) [6]: 0.98 | RP (Rf, BSA-impregnated RP plate) [7]: 0.87 | PB [8]: 0.5 | chromatographic logD [9]: -0.64

CCN(CC)C(=O)Nc1ccc(OCC(O)CNC(C)(C)C)c(C(C)=O)c1 (stereo not drawn) [celiprolol]
CRP (Rf, control RP plate) [2]: 0.75 | k HSA [3, 10]: 1.12 | log k IAM [4]: 0.77 | k IAM [4]: 5.87 | CNP (Rf, control NP plate) [5]: 0.45 | NP (Rf, BSA-impregnated NP plate) [6]: 0.46 | RP (Rf, BSA-impregnated RP plate) [7]: 0.79 | PB [8]: 0.275 | chromatographic logD [9]: 0.05

CN1CCC(=C2c3ccccc3C=Cc3ccccc32)CC1 [cyproheptadine]
CNS+/- [1]: 1 | CRP (Rf, control RP plate) [2]: 0.45 | k HSA [3, 10]: 9.7 | log k IAM [4]: 1.38 | k IAM [4]: 23.79 | CNP (Rf, control NP plate) [5]: 0.45 | NP (Rf, BSA-impregnated NP plate) [6]: 0.43 | RP (Rf, BSA-impregnated RP plate) [7]: 0.47 | PB [8]: 0.975 | chromatographic logD [9]: 0.99

CN1C[C@H](C(=O)N[C@]2(C)O[C@@]3(O)[C@@H]4CCCN4C(=O)[C@H](Cc4ccccc4)N3C2=O)C[C@@H]2c3cccc4[nH]cc(c34)C[C@H]21 [dihydroergotamine]
CNS+/- [1]: 0 | CRP (Rf, control RP plate) [2]: 0.78 | k HSA ([3]; pH 7.4): 0.23 | CNP (Rf, control NP plate) [5]: 0.72 | NP (Rf, BSA-impregnated NP plate) [6]: 0.75 | RP (Rf, BSA-impregnated RP plate) [7]: 0.78 | PB [8]: 0.93 | chromatographic logD [9]: -0.64

COC(=O)[C@@H]1CC2=CC(=O)CC[C@]2(C)[C@@]23O[C@@H]2C[C@@]2(C)[C@@H](CC[C@@]24CCC(=O)O4)[C@H]13 [eplerenone]
CNS+/- [1]: 1 | CRP (Rf, control RP plate) [2]: 0.84 | k HSA [3, 10]: 0.21 | log k IAM [4]: 0.19 | k IAM [4]: 1.54 | CNP (Rf, control NP plate) [5]: 0.94 | NP (Rf, BSA-impregnated NP plate) [6]: 0.94 | RP (Rf, BSA-impregnated RP plate) [7]: 0.85 | PB [8]: 0.5 | chromatographic logD [9]: -0.68

NC(N)=Nc1nc(CSCCC(N)=NS(N)(=O)=O)cs1 [famotidine]
CRP (Rf, control RP plate) [2]: 0.98 | k HSA [3, 10]: 0.99 | CNP (Rf, control NP plate) [5]: 0.70 | NP (Rf, BSA-impregnated NP plate) [6]: 0.71 | RP (Rf, BSA-impregnated RP plate) [7]: 0.99 | chromatographic logD [9]: 0

Cc1ccc(S(=O)(=O)NC(=O)NN2CC3CCCC3C2)cc1 (stereo not drawn) [gliclazide]
CNS+/- [1]: 1 | CRP (Rf, control RP plate) [2]: 0.83 | k HSA [3, 10]: 9.69 | log k IAM [4]: -0.55 | k IAM [4]: 0.28 | CNP (Rf, control NP plate) [5]: 0.95 | NP (Rf, BSA-impregnated NP plate) [6]: 0.95 | RP (Rf, BSA-impregnated RP plate) [7]: 0.80 | PB [8]: 0.94 | chromatographic logD [9]: 0.99

CN(C)C(=O)C(CCN1CCC(O)(c2ccc(Cl)cc2)CC1)(c1ccccc1)c1ccccc1 [loperamide]
CRP (Rf, control RP plate) [2]: 0.75 | k HSA ([3]; pH 7.4): 4.47 | CNP (Rf, control NP plate) [5]: 0.68 | NP (Rf, BSA-impregnated NP plate) [6]: 0.67 | RP (Rf, BSA-impregnated RP plate) [7]: 0.77 | chromatographic logD [9]: 0.65

CN1CCN=C(c2ccccc2)c2cc(Cl)ccc21 [medazepam]
CRP (Rf, control RP plate) [2]: 0.66 | k HSA ([3]; pH 7.4): 17.86 | log k IAM [4]: 1.54 | k IAM [4]: 34.65 | CNP (Rf, control NP plate) [5]: 0.91 | NP (Rf, BSA-impregnated NP plate) [6]: 0.94 | RP (Rf, BSA-impregnated RP plate) [7]: 0.65 | chromatographic logD [9]: 1.25

OC(CNCC(O)C1CCc2cc(F)ccc2O1)C1CCc2cc(F)ccc2O1 (stereo not drawn) [nebivolol]
CNS+/- [1]: 1 | CRP (Rf, control RP plate) [2]: 0.40 | k HSA [3, 10]: 7.49 | CNP (Rf, control NP plate) [5]: 0.75 | NP (Rf, BSA-impregnated NP plate) [6]: 0.75 | RP (Rf, BSA-impregnated RP plate) [7]: 0.40 | PB [8]: 0.98 | chromatographic logD [9]: 0.87

CC(C)c1nc(N(C)S(C)(=O)=O)nc(-c2ccc(F)cc2)c1/C=C/[C@@H](O)C[C@@H](O)CC(=O)O [rosuvastatin]
CNS+/- [1]: 0 | CRP (Rf, control RP plate) [2]: 0.92 | k HSA [3, 10]: 1.96 | log k IAM [4]: -0.02 | k IAM [4]: 0.96 | CNP (Rf, control NP plate) [5]: 0.9 | NP (Rf, BSA-impregnated NP plate) [6]: 0.89 | RP (Rf, BSA-impregnated RP plate) [7]: 0.88 | chromatographic logD [9]: 0.29

Cc1cncc(CN2CCC(=C3c4ccc(Cl)cc4CCc4cccnc43)CC2)c1 [rupatadine]
CRP (Rf, control RP plate) [2]: 0.55 | k HSA [3, 10]: 12.38 | log k IAM [4]: 0.97 | k IAM [4]: 9.29 | CNP (Rf, control NP plate) [5]: 0.42 | NP (Rf, BSA-impregnated NP plate) [6]: 0.43 | RP (Rf, BSA-impregnated RP plate) [7]: 0.52 | PB [8]: 0.985 | chromatographic logD [9]: 1.09

CC(=O)S[C@@H]1CC2=CC(=O)CC[C@]2(C)[C@H]2CC[C@@]3(C)[C@@H](CC[C@@]34CCC(=O)O4)[C@H]12 [spironolactone]
CRP (Rf, control RP plate) [2]: 0.78 | k HSA [3, 10]: 0.82 | log k IAM [4]: 1.13 | k IAM [4]: 13.38 | CNP (Rf, control NP plate) [5]: 0.98 | NP (Rf, BSA-impregnated NP plate) [6]: 0.96 | RP (Rf, BSA-impregnated RP plate) [7]: 0.77 | PB [8]: 0.9 | chromatographic logD [9]: -0.09
